This note sets out measurements from paper PMC9704079, “Enhancement of the anticancer effect of atorvastatin-loaded nanoemulsions by improving oral absorption via multivalent intestinal transporter-targeting lipids” (Drug Delivery, 2022).

One series deals with 4T1 cell tumor. The series can be described thus: In vivo tumor growth inhibition in 4T1 cell tumor-bearing mice. Details: species or system BALB/c mice. The method, then: To evaluate the in vivo antitumor efficacy of oral ATV-NEs, 1 × 10^6 4T1 cells dispersed in 100 μL of PBS (pH 7.4) were subcutaneously inoculated into the left flanks of BALB/c mice. […] To assess tumor growth suppression, the tumor size and body weight of the mice in all groups were measured every 3 days after treatment. The tumor volume in each mouse was calculated as (width)^2 × length × 0.52. After 21 days of treatment, mice were sacrificed and tumor masses were measured.

The test system of series [1] is 4T1 (murine stage IV breast cancer) cells. It counts as cell-based. To be noted: mouse, 24 h. The method, then:
(§1) After incubation for 1 h, the absorbance at 450 nm was measured and the percentage of viable cells was calculated by comparison with the absorbance of untreated cells (100% viability).

Series [2] concerns MCF-7 (human breast adenocarcinoma) cells. It counts as cell-based. To be noted: 24 h. As to the method: as §1
Series [3] deals with 4T1 cells. The series can be described thus: In vitro 4T1 cell adhesion to ECM components. The note with it: 100 µg/mL ATV, 1.5 h; fibronectin, collagen I, collagen IV, laminin I, fibrinogen. It is filed as cell-based, murine. As to the method: After incubation for 1.5 h at 37 °C, the cells were washed with PBS (pH 7.4) and stained by incubation for 10 min with the dye included in the kit. Then, each well was gently washed five times with 500 µL of sterilized water; 200 µL of extraction solution were added to each well, and the cells were incubated for 10 min in an orbital shaker. Finally, change in color was measured with a plate reader at 560 nm; inhibition of adhesion in the drug-treated cells was evaluated relative to inhibition in the untreated cells (control).

In series [4] the test system is 4T1 cells. Put plainly: In vitro 4T1 cell invasion assay. It is filed as cell-based, murine. The note with it: 100 µg/mL ATV, 24 h. As to the method:
(§2) The in vitro inhibition of 4T1 cell invasion and migration by ATV-NEs was assessed by Cultrex® 24-well basement membrane extract cell invasion assays (Trevigen, Inc., Gaithersburg, MD, USA). Briefly, the membrane insert in each well was uniformly coated with 100 µL of 0.5× basement membrane extract and incubated for 24 h at 37 °C. Separately, uncoated wells were used for cell migration assays. Next, each coated well was washed using 1× buffer. For invasion assays, the cells in Roswell Park Memorial Institute medium with 0.5% FBS were seeded into each apical chamber at a density of 1 × 10^6 cells/well. For cell migration assays, the same number of cells was seeded in the uncoated apical compartment. Subsequently, 500 µL of Roswell Park Memorial Institute medium containing 10% FBS were loaded into the basal compartment to serve as a chemoattractant; the cells were then cultured at 37 °C. After incubation for 24 h, both apical and basal compartments were washed with 1× buffer and the basal chamber was filled with 500 µL of cell dissociation solution (calcein-AM); the cells were incubated for 1 h at 37 °C. Finally, the dissolved calcein-AM concentration was measured with a fluorescence reader at an excitation wavelength of 485 nm and emission wavelength of 520 nm.

The subject of series [5] is 4T1 cells. The series can be described thus: In vitro 4T1 cell migration assay. It counts as cell-based, murine. The note with it: Mus musculus, 4T1, 24 h; read-out: Inhibition of 4T1 cell migration compared with untreated controls. The method, then: as §2

As to `CC(C)c1c(C(=O)Nc2ccccc2)c(-c2ccccc2)c(-c2ccc(F)cc2)n1CC[C@@H](O)C[C@@H](O)CC(=O)O` [ATV in 10% DMF, Atorvastatin], the “Tumor growth compared to untreated controls (in words)” value with 4T1 cell tumor (daily oral, 40 mg/kg ATV in 10% DMF, 21 days) was “did not inhibit tumor growth”.

Take `CC(C)c1c(C(=O)Nc2ccccc2)c(-c2ccccc2)c(-c2ccc(F)cc2)n1CC[C@@H](O)C[C@@H](O)CC(=O)O` [ATV-IP, Atorvastatin]: the “Tumor growth inhibition compared to controls” value is recorded as 30.4% with 4T1 cell tumor (once-daily IP, 5 mg/kg ATV in 10% DMF, 21 days) and 52.5% with 4T1 cell tumor (once-daily IP, 10 mg/kg ATV in 10% DMF, 21 days). Besides, the “Isolated tumor mass reduction compared to controls” value in the series on 4T1 cell tumor (once-daily IP, 10 mg/kg ATV in 10% DMF, day 21) is reported as 73.8%.

With `CC(C)c1c(C(=O)Nc2ccccc2)c(-c2ccccc2)c(-c2ccc(F)cc2)n1CC[C@@H](O)C[C@@H](O)CC(=O)O` [ATV in 0.5% DMSO, Atorvastatin], the “Concentration at which cytotoxic effects were exhibited” value in series [1] and in series [2] was greater than 100 µg/mL ATV throughout. Also, the “4T1 cell adhesion to ECM components (in words)” value with 4T1 cells [3] is reported as “significantly decreased adhesion”. The “Decrease in 4T1 cell invasion compared with untreated controls” value in the series with 4T1 cells [4] was determined as 31.9%. In addition, in the series with 4T1 cells [5], the inhibition at 100 µg/mL was 20.3%.
